From US5356926A, “3-alkyloxy-, aryloxy-, or arylalkyloxy-benzo [β]thiophene-2-carboxamides as inhibitors of cell adhesion” (Warner-Lambert Company, priority 1993, dated 1994)

Test system: human neutrophil adhesion to TNFα, IL-1α, and LPS-stimulated human umbilical vein endothelial cells
Test: Inhibition of human neutrophil adhesion to stimulated HUVEC (51Cr-labeled neutrophils)
Assay type: cell-based
Conditions: Table 1
Excerpt: METHOD FOR DETERMINING THE INHIBITION OF HUMAN NEUTROPHIL ADHESION TO TNFα, IL-1α, AND LPS-STIMULATED HUMAN UMBILICAL VEIN ENDOTHELIAL CELLS BY 3-ALKYLOXY-, ARYLOXY-, OR ARYLALKYLOXY BENZO[b]THIOPHENE-2-CARBOXAMIDES
Neutrophils were isolated from anticoagulant-treated venous blood obtained from healthy human volunteers according to the method of Ferrante and Thong (J. Immunol. Methods 1978;24:389-93).
Second passage human umbilical vein endothelial cells (HUVEC) (Clonetics, San Diego, Calif.) were seeded into Falcon 24-well cell culture plates (Becton Dickinson, Lincoln Park, N.J.) at approximately 2×10^4 cells per well. The cells were grown to confluent monolayers in endothelial basal medium (EBM, Clonetics) supplemented with 5% fetal calf serum (Hyclone Laboratories, Logan, Utah), 10 ng/mL EGF, 1 μg/mL hydrocortisone, 0.4% bovine brain extract (Clonetics) in 5% CO2 at 37° C.
Neutrophils (30×10^6) were labeled for 60 minutes at 37° C. with 100 μCi Na^51 CrO4 (ICN Biomedicals, Costa Mesa, Calif.) in 2.0 mL Ca^2+ - and Mg^2+ -free Hanks' balanced salt solution (HBSS, GIBCO Laboratories, Grand Island, N.Y.). The cells were washed two times in HBSS and suspended in unsupplemented EBM.
Stimulation of HUVEC with tumor necrosis factor-α (TNFα) (Genzyme, Cambridge, Mass.) , interleukin (IL-1α) (Genzyrne) or E. coli 0111:B4 lipopolysaccharide (LPS) (Sigma) in the presence or absence of drug was initiated 4 hours prior to the addition of neutrophils. The suspension medium was unsupplemented EBM or supplemented EBM for studies with cytokines or LPS, respectively. […] Immediately prior to addition of ^51 Cr-labeled neutrophils to the HUVEC monolayers, the cultures were washed with 1 mL unsupplemented media to remove stimulus and/or drug. Neutrophils (5×10^5) were then added to the HUVEC in 0.5 mL unsupplemented media and incubated at 37° C. for 30 minutes. Nonadherent neutrophils were removed by aspiration. Following an additional wash, adherent neutrophils were lysed with 0.5 mL 1N NH4 OH overnight at 37° C. Lysates were collected and the radioactivity in each well was determined by gamma ray spectroscopy.

Row | IC50 | Structure (SMILES)
1 | 1.2 µM | CC(C)Oc1c(C(N)=O)sc2ccc(O)cc12 [Example 10, 5-Hydroxy-3-(1-methylethoxy)benzo[b]thiophene-2-carboxamide]

Same assay, conditions: Table 1, at 100 μM

Row | Structure (SMILES) | inhibition at 100 µM
2 | CC(C)Oc1c(C(N)=O)sc2ccc([N+](=O)[O-])cc12 [Example 5, 3-(1-Methylethoxy)-5-nitrobenzo[b]thiophene2-carboxamide] | 40%

Same assay, conditions: Table 2, at 100 μM

Row | Structure (SMILES) | inhibition at 100 µM
3 | COc1ccc2sc(C(=O)Nc3ccccc3C(=O)O)c(OC(C)C)c2c1 [Example 15, 2-[[[5-Methoxy-3-(1-methylethoxy)benzo[b]thien2-yl]carbonyl]amino]benzoic acid] | 35%
4 | COC(=O)Cc1cccc(NC(=O)c2sc3ccc(OC)cc3c2OC(C)C)c1 [Example 19, Methyl 3-[[[5-Methoxy-3-(1-methylethoxy)benzo[b]thien-2-yl]carbonyl]amino]benzeneacetate] | 45%
5 | COc1ccc2sc(C(=O)NC(C)C)c(OC(C)C)c2c1 [Example 35, 5-Methoxy-3-(1-methylethoxy)-N-(1-methylethyl)benzo[b]thiophene-2-carboxamide] | 100%
6 | COc1ccc2sc(C(=O)NCc3ccc(C(=O)O)cc3)c(OC(C)C)c2c1 [Example 16, 4-[[[5-Methoxy-3-(1-methylethoxy)benzo[b]thien-2-yl]carbonyl]aminomethyl]benzoic acid] | 47%
7 | COc1ccc2sc(C(=O)Nc3ccsc3C(=O)O)c(OC(C)C)c2c1 [Example 23] | 20%
8 | COC(=O)CCCCNC(=O)c1sc2ccc(OC)cc2c1OC(C)C [Example 21, Methyl 5-[[[5-methoxy-3-(1-methylethoxy)benzo[b]thien2-yl]carbonyl]amino]pentanoate] | 8%
9 | COc1ccc2sc(C(=O)NCCCCC(=O)O)c(OC(C)C)c2c1 [Example 22, 5-[[[5-Methoxy-3-(1-methylethoxy)benzo[b]thien2-yl]carbonyl]amino]pentanoicacid] | 9%

Test system: human neutrophil adhesion to TNFα, IL-1α, and LPS stimulated human umbilical vein endothelial cells
Test: Modified method: inhibition of human neutrophil adhesion to TNF-stimulated HUVEC (calcein fluorescence)
Assay type: cell-based
Set-up: inhibition: dose or concentration left out as unconfirmed
Conditions: Table 2, footnote c not defined
Excerpt: MODIFIED METHOD FOR DETERMINING THE INHIBITION OF HUMAN NEUTROPHIL ADHESION TO TNFα, IL-1α, AND LPS STIMULATED HUMAN UMBILICAL VEIN ENDOTHELIAL CELLS BY 3-ALKOXY-BENZO[b]THIOPHENE-2-CARBOXAMIDES
The previous assay using ^51 Cr labeled human neutrophils has been modified. The neutrophils are now labeled with the fluorescent dye calcein. The current method allows for quantification of neutrophil adherence by fluorescence spectroscopy.
Second passage HUVEC (Clonetics Corporation, San Diego, Calif., CC-2617) were seeded into Corning (Corning glass works, Corning, N.Y.) 96-well cell culture plates at approximately 5×10^3 cells/well and grown to confluency in supplemented endothelial basal medium (EBM, MCDB-131, Clonetics, 10 ng/mL EGF, 1 μg/mL hydrocortisone, 0.4% bovine brain extract, 5% Fetal Bovine Serum). One day prior to running the assay, typically 3 days postseeding, the cultures were refed with 0.2 mL/well supplemented EBM (S-EBM).
Preparation of Test Compounds
Test compounds were prepared as 10 mL stock solutions at a concentration of 1.0 mM. The compounds were initially solubilized in 0.1 mL DMSO followed by the addition of 9.9 mL S-EBM. The drug preparations were then diluted in one step to a concentration of 66.6 μM. Solubilizations and dilutions were performed in polystyrene containers.
Isolation of Human Neutrophils
Human neutrophils were isolated from anticoagulant-treated venous blood obtained from healthy volunteers according to the method of Ferrante and Thong. The cell preparations consisted of greater than 98% neutrophils.
Recombinant human tumor necrosis factor-α (TNF, Genzyme, Boston, Mass., code TNF-H) was prepared at 400 U/mL in S-EBM. Stock TNF was prepared to 20,000 U/mL in Delbecco's phosphate-buffered saline (PBS, Gibco, Grand Island N.Y.) plus 0.1% BSA and stored at -70° C. […] This was accomplished by adding 0.1 mL of 400 U/mL TNF and 0.1 mL 66.6 μM test compound. These additions were done slowly as to not disrupt the HUVEC monolayer. Each compound was tested in six wells. Unstimulated (vehicle control) and TNF-stimulated without test compound treatments were also run in each plate.
One hour prior to adding the neutrophils to the HI/VEC, neutrophils (5×10^6 /mL) were labeled for 30 minutes at 37° C. with 5 μM calcine-AM (Molecular Probes, Eugene, OR) in Hanks' balanced salt solution plus 0.45% BSA. Stock calcein was prepared to 5 mM in anhydrous DMSO and stored desiccated at -20° C. At the end of the incubation the cells were washed two times in cold HBSS and resuspended to a final concentration of 1×10^6 cells/mL in unsupplemented EBM.
Addition of Neutrophils to HUVEC
At the end of the 4-hour stimulation and immediately prior to the addition of the neutrophils to the HUVEC monolayer, the plates were washed with 0.2 mL warm unsupplemented EBM to remove TNF and drug. Neutrophils (1×10^5 cells) were slowly added to each of the treated wells and incubated for 30 minutes at 37° C. At the end of the incubation the plates were washed two times with 0.2 mL warm unsupplemented EBM followed by a final addition of 0.1 mL for plate scanning.
Determination of Relative Fluorescence
The relative fluorescence was determined using a Millipore Cytofluor 2300 system (excitation=480, emission=530, sensitivity=4).
Results were expressed as means of percent inhibition of TNF-stimulated adherence, using the following equation. [formula] […] Linear regression analysis of the means of the inhibition values were used to determine the IC50.
The compounds of Examples 36-44 in Table 2 and 45-53 in Table 3 were tested according to the modified method.

Row | IC50 | Structure (SMILES)
10 | 34 µM | COc1ccc2sc(C(=O)Nc3ccc(C(=O)O)c(O)c3)c(OC(C)C)c2c1 [Example 42, 2-Hydroxy-4-[[[5-methoxy-3-(1-methylethoxy)benzo[b]thien-2-yl]carbonyl]arnino]benzoic acid]

Same assay, conditions: Table 2, tested at a concentration of 33.3 μM (footnote a)

Row | Structure (SMILES) | inhibition at 33.3 µM
11 | COc1ccc2sc(C(=O)Nc3ccc(C(=O)O)cc3OC)c(OC(C)C)c2c1 [Example 40, 3-Methoxy-4-[[[5-methoxy-3-(1-methylethoxy)benzo [b]thien-2-yl]carbonyl]amino]benzoic acid] | 34%
12 | CCOC(=O)c1ccc(NC(=O)c2sc3ccc(OC)cc3c2OC(C)C)nc1 [Example 36, Ethyl 6-[[[5-methoxy-3-(1-methylethoxy)benzo[b]thien-2-yl]carbonyl]amino]-3-pyridinecarboxylate] | 26%
13 | COc1ccc2sc(C(=O)Nc3ccc(C(=O)O)cn3)c(OC(C)C)c2c1 [Example 37] | 8%
14 | CCOC(=O)Cc1csc(NC(=O)c2sc3ccc(OC)cc3c2OC(C)C)n1 [Example 38, Ethyl 2-[[[5-methoxy-3-(1-methylethoxy)benzo[b]thien-2-yl]carbonyl]amino]-4-thiazoleacetate] | 72%
15 | COc1ccc2sc(C(=O)Nc3nc(CC(=O)O)cs3)c(OC(C)C)c2c1 [Example 39, 2-[[[5-Methoxy-3-(1-methylethoxy)benzo[b]thien-2-yl]carbonyl]amino]-4-thiazoleacetic acid] | 26%

Same assay, conditions: Table 3

Row | Structure (SMILES) | inhibition
16 | COc1ccc2c(c1)c(Oc1ccccc1)c(C(N)=O)[s+]2[O-] (stereo not drawn) [Example 51, 5-Methoxy-3-phenoxybenzo[b]thiophene-2-carboxamide-1-oxide] | 15%
17 | Cc1ccc2c(c1)c(OC(C)C)c(C(N)=O)[s+]2[O-] (stereo not drawn) [Example 50, 5-Methyl-3-(1-methylethoxy)benzo[b]thiophene-2-carboxaraide-1-oxide] | 69%
18 | COc1ccc2c(c1)c(OC(C)C)c(C(=O)NCc1ccccc1)[s+]2[O-] (stereo not drawn) [Example 47, 5-Methoxy-3-(1-methylethoxy)-N-(phenylmethyl)benzo[b]thiophene-2-carboxamide-1-oxide] | 15%
19 | CC(C)Oc1c(C(N)=O)[s+]([O-])c2ccc(O)cc12 (stereo not drawn) [Example 49, 5-Hydroxy-3-(1-methylethoxy)benzo[b]thiophene-2-carboxaraide-1-oxide] | 79%
20 | CNC(=O)c1c(OC(C)C)c2cc(OC)ccc2[s+]1[O-] (stereo not drawn) [Example 46, 5-Methoxy-N-methyl-3-(1-methylethoxy)benzo[b]thiophene-2-carboxamide-1-oxide] | 43%
21 | COc1ccc2c(c1)c(OC)c(C(N)=O)[s+]2[O-] (stereo not drawn) [Example 53, 3,5-Dimethoxybenzo[b]thiophene-2-carboxamide-1-oxide] | 40%
